For one data set, the target named is JAK2 kinase (Homo sapiens (Human), UniProt O60674). Nature of the data set: Assay for inhibiting JAK2 kinase (in vitro kinase assay, HRP anti-phosphotyrosine antibody/TMB absorbance). The data set is classed as biochemical. The settings on record: 20 μM ATP, 50 minutes at room temperature; read-out: IC50 (JAK2/Bio). As to the method: In vitro activity of compounds of the present invention for inhibiting JAK2 kinase was determined by the following method.

Data set [1] concerns human erythroid leukemia cell line TF-1. Briefly: Proliferation inhibition assay on human erythroid leukemia cell line TF-1 mediated by IL-4 (Cell Counting Kit-8). The format is cell-based. The settings on record: TF-1 cells, 10 ng/mL IL-4, 72 hours. An excerpt: The following in vitro assay is to determine the activity of the compounds of the present invention for inhibiting the proliferation of human erythroid leukemia cell line TF-1.
The activity is represented by the IC50 value, which can not only reflect the activity of a test compound for inhibiting JAK2 and JAK3 kinase, but can also reflect the selectivity of a test compound for JAK2 and JAK3 kinase.
The general procedures of the assay are given as follows: first, the TF-1 cells (purchased from ATCC, Catalog number: CRL 2003) were seeded in a 96-well cell culture plate at a suitable cell concentration (8000 cells/mL medium), and 10 ng/mL IL-4 (Invitrogen, Catalog Number: PHC0044) were added to each well. Then 10× serial concentration gradient of test compounds solutions (10000, 1000, 100, 10, 1 and 0.1 nM) were prepared, and then the 10× compound solutions prepared above were added to the 96-well cell culture plate containing IL-4. After the cell plates were cultured continuously for 72 hours, the activity of the test compounds for inhibiting the cell proliferation was determined by using a Cell Counting Kit-8 (purchased from Dojindo, Catalog Number: CK04). IC50 values were calculated from the data of the inhibition rates at various concentrations of the test compounds.
(§1) The biological activity of the compounds of the present invention was tested by using the assay described above.
Background: Formazan colour is commonly taken as a measure of viable cells.

The next data set concerns T cells. Briefly: Proliferation inhibition assay on T cells (PBMC, anti-CD3, IL-2, ATPlite). The format is cell-based. Conditions: Homo sapiens, T-cell; IL-2 10 ng/mL, 72 hours.
Description: The following in vitro assay is to determine the activity of the compounds of the present invention for inhibiting the proliferation of T cells.
The activity is represented by the IC50 value.
The general procedures of the assay are given as follows: first, the PBMC cell line (purchased from Shanghai Blood Center) was centrifuged, the supernatant was removed, and the cells counted. […] Then, the cells were washed 3 times, resuspended, diluted to 2×10^6/mL, and then mixed with recombinant human IL-2 (purchased from Peprotech, Catalog Number: 200-02) to a concentration of 10 ng/mL, and cultured for another 3 days. The cells were washed again 3 times, and diluted to 5×10^5/mL. 80 μL of the cells were seeded in each well of a 96-well cell culture plate. […] To the control wells, 10 μL culture medium were added. The plate was placed in an incubator. After incubating for 1 hr, negative control wells were mixed with 10 μL of culture medium, and the rest of the wells were mixed with IL-2 to a concentration of 10 ng/mL, and incubated continuously for 72 hours. […] IC50 values were calculated from the data of inhibition rates at various concentrations of the test compounds.
as §1
On the technique in general: ATP-based viability assays read luminescence as a measure of living cells.

The nature of data set [2]: Pharmacokinetics assay in rats, intragastric administration, plasma by LC/MS/MS. The data set is classed as in vivo, Sprague-Dawley (SD) rats. Conditions: both sexes, Sprague-Dawley, rat, plasma, po, SD rats, 10 mg/kg; for Vd/F: read-out: Apparent Distribution Volume Vz/F; for AUC: read-out: Area Under Curve AUC; for CL/F: read-out: Clearance CL/F; for half-life: read-out: Half-Life t½ (converted); for Cmax: read-out: Plasma Conc. Cmax. Summed up: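 Fasted SD rats of both sexes dosed intragastrically at 10.0 mg/kg as a 1.0 mg/mL DMSO suspension; fed 2 h post-dose. Plasma sampled at various time points, protein-precipitated with methanol plus internal standard, and analyzed by LC-MS/MS.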

For a further data set, the target named is JAK1 kinase (Homo sapiens (Human), UniProt P23458). Nature of the data set: Assay for inhibiting JAK1 kinase (in vitro kinase assay, HRP anti-phosphotyrosine antibody/TMB absorbance). The data set is classed as biochemical. Conditions: 20 μM ATP, 50 minutes at room temperature; read-out: IC50 (JAK1/Bio). The procedure:
In vitro activity of compounds of the present invention for inhibiting JAK1 kinase was determined by the following method.
IC50 values of test compounds was calculated from the data of the test compounds in inhibiting the activity of JAK1 kinase at different concentrations.

The target in a further data set is JAK3 kinase (Homo sapiens (Human), UniProt P52333). Briefly: Assay for inhibiting JAK3 kinase (in vitro kinase assay, HRP anti-phosphotyrosine antibody/TMB absorbance). Conditions: 50 minutes at room temperature; read-out: IC50 (JAK3/Bio). The data set is classed as biochemical. As to the method:
In vitro activity of compounds of the present invention for inhibiting JAK3 kinase was determined by the following method.

From patent US9527851B2, “Pyrrole six-membered heteroaryl ring derivative, preparation method thereof, and medicinal uses thereof” (Jiangsu Hengrui Medicine Co., Ltd., priority 2011, dated 2016) come the findings set out here.

Chain of JAK2 kinase (O60674 whole entry): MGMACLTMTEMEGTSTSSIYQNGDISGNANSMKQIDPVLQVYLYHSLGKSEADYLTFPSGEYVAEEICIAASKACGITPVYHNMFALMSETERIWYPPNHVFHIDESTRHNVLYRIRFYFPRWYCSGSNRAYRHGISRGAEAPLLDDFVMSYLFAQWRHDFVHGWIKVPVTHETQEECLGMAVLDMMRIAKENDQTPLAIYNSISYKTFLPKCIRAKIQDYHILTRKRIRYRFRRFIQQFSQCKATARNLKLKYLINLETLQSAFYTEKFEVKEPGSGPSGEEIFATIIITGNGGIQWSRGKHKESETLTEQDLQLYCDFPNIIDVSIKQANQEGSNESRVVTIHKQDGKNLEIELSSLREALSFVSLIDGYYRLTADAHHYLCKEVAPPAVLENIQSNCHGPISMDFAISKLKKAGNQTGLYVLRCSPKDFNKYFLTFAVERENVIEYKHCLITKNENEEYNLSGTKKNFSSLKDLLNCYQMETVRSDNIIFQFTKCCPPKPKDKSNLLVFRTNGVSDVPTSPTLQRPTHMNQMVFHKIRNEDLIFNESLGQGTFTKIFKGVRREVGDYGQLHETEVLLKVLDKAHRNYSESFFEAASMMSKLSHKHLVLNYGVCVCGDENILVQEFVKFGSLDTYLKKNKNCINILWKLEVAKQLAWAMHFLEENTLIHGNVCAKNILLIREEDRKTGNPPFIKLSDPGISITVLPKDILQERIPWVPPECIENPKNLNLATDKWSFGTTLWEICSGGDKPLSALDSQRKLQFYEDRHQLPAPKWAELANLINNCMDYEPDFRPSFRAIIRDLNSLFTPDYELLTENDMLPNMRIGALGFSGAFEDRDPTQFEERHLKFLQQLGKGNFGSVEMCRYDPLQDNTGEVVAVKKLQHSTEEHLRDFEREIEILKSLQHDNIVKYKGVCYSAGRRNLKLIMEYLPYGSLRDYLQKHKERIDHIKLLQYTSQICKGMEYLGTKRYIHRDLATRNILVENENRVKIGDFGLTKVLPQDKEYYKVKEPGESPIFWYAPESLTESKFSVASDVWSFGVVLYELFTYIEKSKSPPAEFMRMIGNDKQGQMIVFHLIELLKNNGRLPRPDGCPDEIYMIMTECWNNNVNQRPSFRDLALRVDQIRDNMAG
Chain of JAK1 kinase (P23458 whole entry): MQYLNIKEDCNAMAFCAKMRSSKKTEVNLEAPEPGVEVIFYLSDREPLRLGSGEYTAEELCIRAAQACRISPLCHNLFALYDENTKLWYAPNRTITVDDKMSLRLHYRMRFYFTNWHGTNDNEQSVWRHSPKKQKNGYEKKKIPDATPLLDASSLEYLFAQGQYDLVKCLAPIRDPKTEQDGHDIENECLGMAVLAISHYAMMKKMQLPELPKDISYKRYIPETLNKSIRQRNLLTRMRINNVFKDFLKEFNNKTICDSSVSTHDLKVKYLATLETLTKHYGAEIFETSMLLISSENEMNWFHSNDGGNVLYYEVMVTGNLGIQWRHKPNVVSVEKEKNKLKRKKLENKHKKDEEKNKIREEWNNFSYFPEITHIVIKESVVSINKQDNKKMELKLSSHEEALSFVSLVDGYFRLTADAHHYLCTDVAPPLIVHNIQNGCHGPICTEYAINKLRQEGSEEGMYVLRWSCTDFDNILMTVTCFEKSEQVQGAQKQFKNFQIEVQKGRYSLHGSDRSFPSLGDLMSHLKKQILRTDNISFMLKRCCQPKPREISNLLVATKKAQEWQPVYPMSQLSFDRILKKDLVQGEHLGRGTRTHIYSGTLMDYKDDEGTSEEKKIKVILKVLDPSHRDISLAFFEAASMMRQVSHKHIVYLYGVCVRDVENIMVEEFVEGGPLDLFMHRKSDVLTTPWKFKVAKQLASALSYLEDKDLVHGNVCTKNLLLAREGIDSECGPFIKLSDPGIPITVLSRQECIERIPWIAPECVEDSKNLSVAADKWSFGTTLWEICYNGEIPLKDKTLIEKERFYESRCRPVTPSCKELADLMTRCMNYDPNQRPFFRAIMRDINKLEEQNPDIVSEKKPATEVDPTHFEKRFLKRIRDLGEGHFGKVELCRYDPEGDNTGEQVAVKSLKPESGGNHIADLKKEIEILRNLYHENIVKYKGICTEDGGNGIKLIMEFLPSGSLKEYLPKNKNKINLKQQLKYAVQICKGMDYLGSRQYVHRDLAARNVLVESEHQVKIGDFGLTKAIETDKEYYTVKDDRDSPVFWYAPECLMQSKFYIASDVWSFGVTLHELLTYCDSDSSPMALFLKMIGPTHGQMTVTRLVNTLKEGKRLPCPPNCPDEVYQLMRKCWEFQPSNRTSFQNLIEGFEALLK
Chain of JAK3 kinase (P52333 whole entry): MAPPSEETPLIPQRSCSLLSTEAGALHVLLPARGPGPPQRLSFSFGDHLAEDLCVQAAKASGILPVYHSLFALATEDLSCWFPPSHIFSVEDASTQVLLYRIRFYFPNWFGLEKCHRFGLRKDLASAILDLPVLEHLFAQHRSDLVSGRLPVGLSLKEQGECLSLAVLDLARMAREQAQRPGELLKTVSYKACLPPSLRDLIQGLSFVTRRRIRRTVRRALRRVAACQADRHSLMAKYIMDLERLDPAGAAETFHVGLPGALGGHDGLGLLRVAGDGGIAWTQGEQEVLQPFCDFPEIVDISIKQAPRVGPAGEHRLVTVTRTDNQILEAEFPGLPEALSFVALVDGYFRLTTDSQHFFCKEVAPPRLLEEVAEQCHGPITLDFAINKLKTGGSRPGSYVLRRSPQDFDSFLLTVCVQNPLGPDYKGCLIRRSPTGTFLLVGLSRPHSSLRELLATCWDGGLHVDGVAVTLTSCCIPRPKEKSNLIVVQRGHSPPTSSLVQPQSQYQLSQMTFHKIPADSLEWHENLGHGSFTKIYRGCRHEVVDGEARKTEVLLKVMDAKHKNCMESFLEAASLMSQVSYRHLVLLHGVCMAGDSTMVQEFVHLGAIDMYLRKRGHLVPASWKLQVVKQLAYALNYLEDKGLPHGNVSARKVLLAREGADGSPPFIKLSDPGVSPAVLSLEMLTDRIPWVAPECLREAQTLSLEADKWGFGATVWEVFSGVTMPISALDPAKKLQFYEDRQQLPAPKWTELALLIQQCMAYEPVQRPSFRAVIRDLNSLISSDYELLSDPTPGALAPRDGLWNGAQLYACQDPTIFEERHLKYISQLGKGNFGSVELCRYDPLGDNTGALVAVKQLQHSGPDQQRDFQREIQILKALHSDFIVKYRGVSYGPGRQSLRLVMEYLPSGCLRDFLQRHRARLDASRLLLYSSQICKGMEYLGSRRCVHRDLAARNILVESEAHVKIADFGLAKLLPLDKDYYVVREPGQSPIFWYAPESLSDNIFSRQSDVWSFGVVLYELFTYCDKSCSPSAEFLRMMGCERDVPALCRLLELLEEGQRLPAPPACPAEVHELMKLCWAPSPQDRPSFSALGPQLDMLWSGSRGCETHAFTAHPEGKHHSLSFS

As to `CN(c1ncnc2[nH]ccc12)[C@H]1C[C@H]2CNC(=O)C[C@H]2C1` [Example 147, (4aR,6R,7aR)-6-(methyl(7H-pyrrolo[2,3-d]pyrimidin-4-yl)amino)hexahydro-1H-cyclopenta[c]pyridin-3(2H)-one], the IC50 on JAK2 kinase was 5 nM; in data set [1] it was 15 nM.
`CN(c1ncnc2[nH]ccc12)[C@H]1C[C@@H]2CN(C(=O)[C@H](O)C(F)(F)F)C[C@@H]2C1` [Example 94, (S)-3,3,3-trifluoro-2-hydroxy-1-((3aR,5R,6aS)-5-(methyl(7H-pyrrolo[2,3-d]pyrimidin-4-yl)amino)hexahydrocyclopenta[c]pyrrol-2(1H)-yl)propan-1-one]: the IC50 with T cells is 127 nM; in data set [1] (Homo sapiens), 152 nM.
Turning to `CN(c1ncnc2[nH]ccc12)[C@H]1C[C@@H]2CN(C(=O)CO)C[C@@H]2C1` [Example 6, 2-Hydroxy-1-((3aR,5S,6aS)-5-(methyl(7H-pyrrolo[2,3-d]pyrimidin-4-yl)amino)hexahydrocyclopenta[c]pyrrol-2(1H)-yl)ethanone], on JAK2 kinase, the IC50 was found to be 45 nM. For the same molecule, in data set [2], the Vd/F was found to be 34.5 ± 21 L/kg; the AUC (as a rule, the area under the concentration-time curve, a measure of exposure) is 2210 ± 1470 ng·h/mL; the CL/F was 110 ± 71 mL/min/kg; the half-life – broadly, how long it takes for the measured level to halve – is 4.01 ± 1.52 h. The Cmax (usually the maximum level reached in the sampled fluid or tissue) in data set [2] stood at 1230 ± 549 ng/mL. In addition, the MRT (in general, the average time that molecules of a dose stay in the body) in data set [2] (read-out: Mean Residence Time MRT) was 2.19 ± 0.6 h. At JAK1 kinase, the IC50 stood at 5 nM. The IC50 on JAK3 kinase came out at 11 nM.
`CN(c1ncnc2[nH]ccc12)[C@@H]1C[C@H]2CN(C(=O)CO)C[C@@]2(C)C1` (racemic) [Example 14, 2-hydroxy-1-((3aS,5R,6aR/3aS,5R,6aR)-3a-methyl-5-(methyl(7H-pyrrolo[2,3-d]pyrimidin-4-yl)amino)hexahydrocyclopenta[c]pyrrol-2(1H)-yl)ethanone]: the IC50 with T cells amounted to 712 nM; on JAK1 kinase it was 30 nM.
Turning to `CN(c1ncnc2[nH]ccc12)[C@@H]1CC2CNC(=O)CC2C1` (stereo partly drawn) [Example 148, (6S)-6-(methyl(7H-pyrrolo[2,3-d]pyrimidin-4-yl)amino)hexahydro-1H-cyclopenta[c]pyridin-3(2H)-one], on JAK2 kinase, the IC50 came out at 23 nM. Further, in data set [2], the Vd/F is 6.99 ± 3.39 L/kg, the AUC was 5230 ± 1170 ng·h/mL, the CL/F amounted to 33.2 ± 7.7 mL/min/kg and the half-life was 2.72 ± 1.82 h. Further, in data set [2], the Cmax was determined as 1520 ± 317 ng/mL. This molecule showed an IC50 in data set [1] (Homo sapiens, TF-1, 72 h) of 399 nM.
Consider `CN(c1ncnc2[nH]ccc12)[C@H]1C[C@H]2CNC(=O)C[C@H]2C1` [Example 40, (4aR,6R,7aR)-6-(Methyl(7H-pyrrolo[2,3-d]pyrimidin-4-yl)amino) hexahydro-1H-cyclopenta[c]pyridin-3(2H)-one], for which, at JAK2 kinase, the IC50 amounted to 23 nM. In data set [2], the Vd/F came out at 6.99 ± 3.39 L/kg, the AUC was determined as 5230 ± 1170 ng·h/mL, the CL/F is 33.2 ± 7.7 mL/min/kg and the half-life was 2.72 ± 1.82 h. In data set [2], the Cmax was 1520 ± 317 ng/mL. In addition, the IC50 in data set [1] worked out at 399 nM.
